Results from patent US6028112A, “Spirocyclopropyl fluorenes as melatonergic agents” (Bristol-Myers Squibb Company, priority 1998, dated 2000).
pIC50: −log10 of the molar value.

Target: T1, melatonin ML1A receptor (Homo sapiens, UniProt P48039)
T1 construct: expressed in transfected cells; membrane homogenates
Assay: Melatonergic receptor binding activity (2-[125I]-iodomelatonin, membrane homogenates of NIH-3T3 cells expressing the ML1A receptor)
Settings: 37° C., 1 hour, class symbols, read-out: Melatonin Binding Affinity (IC50 Range)
Experimental: Melatonergic Receptor Binding Activity
(a) TME=50 mM Tris buffer containing 12.5 mM MgCl2, and 2 mM EDTA, pH 7.4 at 37° C. with concentrated HCl.
(b) Wash buffer: 20 mM Tris base containing 2 mM MgCl2. pH 7.4 at room temperature.
(c) 10^-4 M melatonin (10^-5 M final concentration).
(d) 2-[^125 I]-iodomelatonin, […] final concentration
2. Membrane Homogenates. The melatonin ML1A receptor cDNA was subcloned into pcDNA3 and introduced into NIH-3T3 cells using Lipofectamine. Transformed NIH-3T3 cells resistant to geneticin (G-418) were isolated, and single colonies expressing high levels of 2[^125 Iiodomelatonin binding were isolated. Cells are maintained in DMEM supplemented with 10% calf serum and G-418 (0.5 g/liter). Cells are grown to confluency in T-175 flasks, scraped using Hank's balanced salt solution, and frozen at -80° C. For preparing membrane homogenates,pellets are thawed on ice, and resuspended in TME buffer in the presence of 10 μg/ml aprotinin and leupeptin, and 100 μM phenylmethylsulfonylfluoride. The cells were then homogenized using a dounce homogenizer, and centrifuged. The resulting pellet was resuspended with dounce homogenizer in TME (supplemented with the above protease inhibitors) and frozen. On the day of assay, the small aliquot was thawed on ice and resuspended in ice cold TME (1:50-1:100 v/v) and held on ice until assayed.
3. Incubation: 37° C. for 1 hour. Reaction is terminated by filtration. Filters are washed 3 times.
4. References: Reppert, S. M., and Ebisawa, R. (1994). Neuron, 13, 1177-1185.

T1 sequence (P48039 whole entry): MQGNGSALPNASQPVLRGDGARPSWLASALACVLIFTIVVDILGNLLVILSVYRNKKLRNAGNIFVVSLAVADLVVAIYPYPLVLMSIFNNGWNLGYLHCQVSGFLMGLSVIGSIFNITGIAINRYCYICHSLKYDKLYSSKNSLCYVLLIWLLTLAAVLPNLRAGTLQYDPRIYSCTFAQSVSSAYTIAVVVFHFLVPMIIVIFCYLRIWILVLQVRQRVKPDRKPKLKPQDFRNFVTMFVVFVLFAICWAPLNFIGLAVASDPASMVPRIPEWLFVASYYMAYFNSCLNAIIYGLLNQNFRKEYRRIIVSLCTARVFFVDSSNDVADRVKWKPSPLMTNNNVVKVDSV

| Compound | pIC50 |
| --- | --- |
| CCC(=O)NCC1CC12c1cc(OC)ccc1-c1ccc(OC)cc12 (single isomer, unassigned; (+)) [Example 5, (+)-N-[(2',7'-Dimethoxyspiro[cyclopropane-1,9'-[9H]fluoren]-2-yl)methyl]propanamide] | > 8.00 |
| CCC(=O)NCC1CC12c1cc(OC)ccc1-c1ccc(OC)cc12 (single isomer, unassigned; (-)) [Example 4, (-)-N-[(2'7'-Dimethoxyspiro[cyclopropane-1,9'-[9H]fluoren]-2-yl)methyl]propanamide] | > 8.00 |
| CCC(=O)NCC1CC12c1cc(OC)ccc1-c1ccc(OC)cc12 (centres unmarked) [Example 3, N-[(2',7'-Dimethoxyspiro[cyclopropane-1,9'-[9H]fluoren]-2-yl)methyl]propanamide] | > 8.00 |
| COc1ccc2c(c1)C1(CC1CNC(C)=O)c1cc(OC)ccc1-2 (centres unmarked) [Example 6, N-[(2',7'-Dimethoxyspiro[cyclopropane-1,9'-[9H]fluoren]-2-yl)methyl]acetamide] | > 8.00 |

More lines, now with the values ahead:

| pIC50 | Compound |
| --- | --- |
| > 8.00 | CCCC(=O)NCC1CC12c1cc(OC)ccc1-c1ccc(OC)cc12 (centres unmarked) [Example 7, N-[(2',7'-Dimethoxyspiro[cyclopropane-1,9'-[9H]fluoren]-2-yl)methyl]butanamide] |
| > 8.00 | COc1ccc2c(c1)C1(CC1CNC(=O)C1CC1)c1cc(OC)ccc1-2 (centres unmarked) [Example 8, N-[(2',7'-Dimethoxyspiro[cyclopropane-1,9'-[9H]fluoren]-2-yl)methyl]cyclopropane carboxamide] |
| 7.00 to 8.00 | COc1ccc2c(c1)C1(CC1CNC(=O)C1CCC1)c1cc(OC)ccc1-2 (centres unmarked) [Example 9, N-[(2',7'-Dimethoxyspiro[cyclopropane-1,9'-[9H]fluoren]-2-yl)methyl]-cyclobutane carboxamide] |
| 6.60 to 7.00 | COc1ccc2c(c1)C1(CC1CNC(=O)C(C)(C)C)c1cc(OC)ccc1-2 (centres unmarked) [Example 10, N-[(2',7'-Dimethoxyspiro[cyclopropane-1,9'-[9H]fluoren]-2-yl)methyl]-2,2-dimethylpropanamide] |
| > 8.00 | CCC(=O)NCC1CC12c1cc(F)ccc1-c1ccc(OC)cc12 (stereo not drawn) [Example 12, cis-N-[(2'-Fluoro-7'-methoxy-spiro[cyclopropane-1,9'-[9H]fluoren]-2-yl)methyl]propanamide] |
| > 8.00 | CCC(=O)NCC1CC12c1cc(F)ccc1-c1ccc(OC)cc12 (stereo not drawn) [Example 13, trans-N-[(2'-Fluoro-7'-methoxy-spiro[cyclopropane-1,9'-[9H]fluoren]-2-yl)methyl]propanamide] |

System: circadian rhythms in rats
Assay: not given
Settings: exogenous administration, Cassone, et al., 1986; cited from earlier work

| Compound | synchronization of circadian rhythms |
| --- | --- |
| COc1ccc2[nH]cc(CCNC(C)=O)c2c1 [melatonin, N-acetyl-5-methoxytryptamine] | found to synchronize circadian rhythms in rats |
